Among the data in the supplement of paper PMC10307832 are relative viability values, retold here.

Common to all, as to assay: relative viability (nuclei count vs DMSO), 5 days (fraction); higher = more cells survive
Compound in test [1]: O=C(Nc1cc(C(F)(F)F)cc(C(F)(F)F)c1)c1cc(Cl)ccc1O [IMD-0354] + COc1cc2c(Oc3ccc(NC(=O)C4(C(=O)Nc5ccc(F)cc5)CC4)cc3F)ccnc2cc1OCCCN1CCOCC1 [Foretinib] (partner 0.25 µM)
A digest of the protocol: (§1)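 The day after seeding in 1536-well plates, lung cancer cell lines were treated by pin tool with a single drug, or with a fixed anchor-drug dose together with five library-drug doses (not always all listed) in √10 steps. After 5 days, a combined fix-and-stain solution (final 0.05% Triton X-100, 1% formaldehyde, 1 ug/ml Hoechst) was added. Nuclei counted on 4× images gave relative viability as treated counts over vehicle counts, reported as the median of duplicate plates.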

Compound in test [2]: Cc1cnc(CNC(=O)c2c(=O)c3ccc(N4CCCN(C)CC4)nc3n3c2sc2ccccc23)cn1 [CX-5461] + O=C(c1cc(Cc2n[nH]c(=O)c3ccccc23)ccc1F)N1CCN(C(=O)C2CC2)CC1 [Olaparib] (partner 8 µM)
A digest of the protocol: as §1

Compound in test [3]: O=C(Nc1cc(C(F)(F)F)cc(C(F)(F)F)c1)c1cc(Cl)ccc1O [IMD-0354] + C[C@@H](Oc1cc(-c2cnn(C3CCNCC3)c2)cnc1N)c1c(Cl)ccc(F)c1Cl [Crizotinib] (partner 1 µM)
A digest of the protocol:
as §1

Compound in test [4]: Cc1cnc(CNC(=O)c2c(=O)c3ccc(N4CCCN(C)CC4)nc3n3c2sc2ccccc23)cn1 [CX-5461] + NC(=O)Nc1cc(-c2cccc(F)c2)sc1C(=O)N[C@H]1CCCNC1 [AZD7762] (partner 0.2 µM)
The gist of the method: as §1

For the cell line NCI-H2126, the relative viability in test [1] (first compound 0.04 µM) came out at 0.935; in test [1] (first compound 0.1265 µM) it was 1.23; in test [1] (first compound 0.4 µM), 0.813; in test [1] (first compound 1.265 µM) it was 0.875; in test [1] (first compound 4 µM), 0.494; in test [2] (first compound 0.01 µM), 0.956. The relative viability in test [2] (first compound 0.03162 µM) was determined as 0.974; in test [2] (first compound 0.1 µM), 0.924; in test [2] (first compound 0.3162 µM) it was 0.968; in test [2] (first compound 1 µM), 0.863; in test [3] (first compound 0.04 µM), 1.03; in test [3] (first compound 0.1265 µM), 0.997. Moreover, the relative viability is 0.878 in test [3] (first compound 0.4 µM); 0.6 in test [3] (first compound 1.265 µM); 0.322 in test [3] (first compound 4 µM); 1.1 in test [4] (first compound 0.01 µM); 1.05 in test [4] (first compound 0.03162 µM); 0.981 in test [4] (first compound 0.1 µM). Besides, the relative viability in test [4] (first compound 0.3162 µM) is 1.05; in test [4] (first compound 1 µM) it was 0.903.
As to NCI-H2170, the relative viability in test [1] (first compound 0.04 µM) is 1.05; in test [1] (first compound 0.1265 µM), 1.03; in test [1] (first compound 0.4 µM), 1.01; in test [1] (first compound 1.265 µM), 0.841; in test [1] (first compound 4 µM) it was 0.268; in test [2] (first compound 0.01 µM), 0.613. Further, the relative viability amounted to 0.566 in test [2] (first compound 0.03162 µM); 0.645 in test [2] (first compound 0.1 µM); 0.599 in test [2] (first compound 0.3162 µM); 0.609 in test [2] (first compound 1 µM); 1.3 in test [3] (first compound 0.04 µM); 1.39 in test [3] (first compound 0.1265 µM). In addition, the relative viability in test [3] (first compound 0.4 µM) was found to be 0.574; in test [3] (first compound 1.265 µM), 1.2; in test [3] (first compound 4 µM) it was 0.33; in test [4] (first compound 0.01 µM), 1.09; in test [4] (first compound 0.03162 µM), 0.92; in test [4] (first compound 0.1 µM) it was 1.01. Also, the results for the relative viability in test [4] (first compound 0.3162 µM) and in test [4] (first compound 1 µM) were 0.917 and 0.504, respectively.
For the cell line NCI-H2347, the relative viability in test [1] (first compound 0.04 µM) came to 1.11; in test [1] (first compound 0.1265 µM), 0.842; in test [1] (first compound 0.4 µM) it was 0.523; in test [1] (first compound 1.265 µM) it was 0.599; in test [1] (first compound 4 µM), 0.513; in test [2] (first compound 0.01 µM), 0.57. The relative viability in test [2] (first compound 0.03162 µM) is 0.648; in test [2] (first compound 0.1 µM) it was 0.606; in test [2] (first compound 0.3162 µM), 0.477; in test [2] (first compound 1 µM) it was 0.517; in test [3] (first compound 0.04 µM) it was 0.752; in test [3] (first compound 0.1265 µM), 0.654. Moreover, the relative viability in test [3] (first compound 0.4 µM) was found to be 0.62; in test [3] (first compound 1.265 µM) it was 0.395; in test [3] (first compound 4 µM), 0.365; in test [4] (first compound 0.01 µM), 0.825; in test [4] (first compound 0.03162 µM), 0.716; in test [4] (first compound 0.1 µM), 0.688. Further, the relative viability in test [4] (first compound 0.3162 µM) is 0.767; in test [4] (first compound 1 µM) it was 0.605.
Take NCI-H2405: the relative viability in test [1] (first compound 0.04 µM) stood at 1.1; in test [1] (first compound 0.1265 µM), 1.02; in test [1] (first compound 0.4 µM), 0.926; in test [1] (first compound 1.265 µM), 0.365; in test [1] (first compound 4 µM), 0.303; in test [2] (first compound 0.01 µM) it was 0.9. Moreover, the relative viability in test [2] (first compound 0.03162 µM) amounted to 0.891; in test [2] (first compound 0.1 µM) it was 0.866; in test [2] (first compound 0.3162 µM), 0.792; in test [2] (first compound 1 µM), 0.639; in test [3] (first compound 0.04 µM), 0.915; in test [3] (first compound 0.1265 µM), 0.86. Also, the relative viability in test [3] (first compound 0.4 µM) worked out at 0.491; in test [3] (first compound 1.265 µM) it was 0.572; in test [3] (first compound 4 µM), 0.304; in test [4] (first compound 0.01 µM), 0.783; in test [4] (first compound 0.03162 µM) it was 0.66; in test [4] (first compound 0.1 µM), 0.705. Besides, the relative viability amounted to 0.821 in test [4] (first compound 0.3162 µM) and 0.414 in test [4] (first compound 1 µM).
